According to patent publication US7390925B2, “Oxime-containing acyl guanidines as beta-secretase inhibitors” (Bristol-Myers Squibb Company, priority 2006, dated 2008):

target: T1, BACE1 enzyme (Homo sapiens, UniProt P56817); assay: Radioligand displacement assay with a radiolabeled BACE inhibitor on HEK293-9B.A1 cell homogenate; format: binding; conditions: displacement of 1 nM radioligand, HEK293-9B.A1 homogenate, pH 5.0, 1.5 hr at 25° C.; read-out: Activity Rating (activity based on IC50 values)
T1 construct: derived from HEK293 cells (Simmons, N. L. (1990)); endogenous in cells; washed 48,000 x g pellet of cell homogenate
T1 sequence (P56817 46-501): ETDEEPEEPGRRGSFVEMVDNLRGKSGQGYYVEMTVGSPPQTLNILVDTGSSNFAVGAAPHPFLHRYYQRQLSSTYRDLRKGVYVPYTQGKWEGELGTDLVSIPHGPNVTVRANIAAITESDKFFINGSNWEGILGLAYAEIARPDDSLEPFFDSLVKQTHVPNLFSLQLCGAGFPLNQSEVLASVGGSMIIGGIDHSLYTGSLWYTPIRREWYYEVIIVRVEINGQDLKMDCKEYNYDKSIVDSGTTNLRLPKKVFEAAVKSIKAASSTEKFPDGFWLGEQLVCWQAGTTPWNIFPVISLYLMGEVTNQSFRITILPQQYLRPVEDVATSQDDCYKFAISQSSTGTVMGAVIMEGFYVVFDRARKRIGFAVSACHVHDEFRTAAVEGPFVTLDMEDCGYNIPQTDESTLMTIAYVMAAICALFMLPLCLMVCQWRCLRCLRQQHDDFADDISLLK
Text: There are a number of methods by which inhibitors of the BACE enzyme can be identified experimentally. The enzyme can be obtained from membrane samples from natural tissues or cultured cells or can be expressed recombinantly in a host cell by well known methods of molecular biology. The whole enzyme or a portion thereof can be expressed, for example, in bacterial, insect or mammalian cells to obtain a catalytically active enzyme species. The enzymatic activity and/or ligand binding capability of the enzyme can be assessed within these membrane samples, or the enzyme can be purified to varying extents. As an illustrative example, the nucleic acid sequence encoding the pro and catalytic domains of human BACE can be appended on the 5′ end with an untranslated and signal sequence from the gene for acetylcholinesterase, and on the 3′ end with a sequence encoding a poly-histidine tag. This cDNA can then be expressed in Drosophila melanogaster S2 cells in which the signal and pro sequences of the transcribed/translated protein are removed by cellular proteases and the catalytic domain, appended by a C-terminal poly-histidine tag, is secreted out into the cellular medium. The enzyme can then be purified from the culture medium by nickel affinity chromatography by methods well known to those trained in the art [Mallender, W. et al., (2001) “Characterization of recombinant, soluble beta-secretase from an insect cell expression system.” Mol. Pharmacol. 59: 619-626]. Similar strategies for expressing and purifying various forms of BACE in bacterial, mammalian and other cell types would be known to one skilled in the art. A preferred method for determining the potency of a test compound in binding to the BACE enzyme is by monitoring the displacement of a suitable radioligand.
Radioligand displacement assays with a radiolabeled BACE inhibitor (WO 2004 013098, compound 3, where the methoxy group is substituted for C(^3H)3) were carried out using standard methods (Keen, M. (1999) in Receptor Binding Techniques (Walker, J. M. ed) p. 106 Humana Press, Totowa, N. J.). The HEK293-9B.A1 cell line, which overexpresses the BACE1 enzyme, was derived from HEK293 cells (Simmons, N. L. (1990) A cultured human renal epithelioid cell line responsive to vasoactive intestinal peptide. Exp. Physiol. 75:309-19.) by RAGE™ (Harrington, J. J. et al. (2001) Creation of genome-wide protein expression libraries using random activation of gene expression. Nat. Biotechnol. 19:440-5.; U.S. Pat. Nos. 6,410,266 and 6,361,972). T225 flask cultures of HEK293-9B.A1 were grown to 80% confluency in DMEM supplemented with 2 mM L-glutamine, 10 μg/ml penicillin, 10 μg/ml streptomycin, 3 μg/ml puromycin, 100 nM methotrexate, and 10% fetal bovine serum (Invitrogen, Carlsbad, Calif.), harvested, and resuspended at 2×10^8 cells per 10 ml of lysis buffer consisting of 50 mM HEPES pH 7.0 containing a protease inhibitor cocktail of AEBSF 104 μM, aprotinin 80 nM, leupeptin 2 μM, bestatin 4 μM, pepstatin A 1.5 μM, and E-64 1.4 μM (0.1% of protease inhibitor cocktail P8340, Sigma-Aldrich, St. Louis, Mo.) at 4° C. The resuspended cells were homogenized using a Polytron (Brinkman, Westbury, N.Y.) at setting 6 for 10 sec., then centrifuged at 48,000×g for 10 min. The resulting pellet was washed by repeating the resuspension, homogenization and centrifugation steps. The final pellet was resuspended in buffer at 4° C. to yield a total protein concentration of 5 mg/ml, then aliquots were frozen in liquid nitrogen for further storage at −70° C. Immediately before carrying out a binding assay, an aliquot of cell homogenate was thawed and diluted to a concentration of 100 μg/ml in assay buffer consisting of 50 mM HEPES pH 5.0 and 0.1% CHAPSO. […]

Question: For `CON=C(CC(=O)/N=C(\N)Cc1cc(Cl)c(NC(C)=O)c(Cl)c1)c1ccc(OC)cc1` [Example 1, N-(2-(4-Acetamido-3,5-dichlorophenyl)-1-aminoethylidene)-3-(methoxyimino)-3-(4-methoxyphenyl)propanamide], which IC50 is on record?
Answer: < 100 nM

Question: For `COc1ccc(C(CC(=O)N=C(N)NCc2cc(Cl)c(NC(C)=O)c(Cl)c2)=NOCC(C)C)cc1` [Example 18, N-((4-acetamido-3,5-dichlorobenzylamino)(amino)-methylene)-3-(isobutoxyimino)-3-(4-methoxyphenyl)propanamide], which IC50 is on record?
Answer: 100 to 1000 nM

Question: For `COc1ccc(C(CC(=O)/N=C(\N)NCc2cc(Cl)c(N)c(Cl)c2)=NOCC(C)C)cc1` [Example 19, N-((4-amino-3,5-dichlorobenzylamino)(amino)methylene)-3-(isobutoxyimino)-3-(4-methoxyphenyl)propanamide], which IC50 is on record?
Answer: > 1000 nM

Question: With `CON=C(CC(=O)/N=C(\N)NCc1cc(Cl)c(N)c(Cl)c1)c1c[nH]c2ccccc12` [Example 20, N-((4-amino-3,5-dichlorobenzylamino)(amino)methylene)-3-(1H-indol-3-yl)-3-(methoxyimino)propanamide] as the compound, how does the IC50 read?
Answer: 100 to 1000 nM

Question: With `CON=C(CC(=O)/N=C(\N)NCc1cc(Cl)c(NC(C)=O)c(Cl)c1)c1c[nH]c2ccccc12` [Example 21, N-((4-acetamido-3,5-dichlorobenzylamino)(amino)methylene)-3-(1H-indol-3-yl)-3-(methoxyimino)propanamide] as the compound, how does the IC50 read?
Answer: < 100 nM

Question: With `CON=C(CC(=O)/N=C(\N)NCc1cc(C)c(C(=O)CN(C)C)c(Cl)c1)c1c[nH]c2ccccc12` [Example 22, N-((3-chloro-4-(2-(dimethylamino)acetyl)-5-methylbenzylamino)(amino)-methylene)-3-(1H-indol-3-yl)-3-(methoxyimino)propanamide] as the compound, how does the IC50 read?
Answer: 100 to 1000 nM

Question: How did the IC50 turn out when “N-(1-Amino-2-(3,5-dichlorophenyl)ethylidene)-3-(methoxyimino)-3-(4-methoxyphenyl)propanamide [Example 3]” was run?
Answer: > 1000 nM

Question: With “N-(1-Amino-2-(3-chloro-4-(2-(dimethylamino)acetamido)-5-methylphenyl)-ethylidene)-3-(methoxyimino)-3-(4-methoxyphenyl)propanamide [Example 4]” as the compound, how does the IC50 read?
Answer: 100 to 1000 nM

Question: How did the IC50 turn out when “N-(1-Amino-2-(4-amino-3,5-dichlorophenyl)ethylidene)-3-(ethoxyimino)-3-(4-methoxyphenyl)propanamide [Example 6]” was run?
Answer: 100 to 1000 nM

Question: With “N-(1-Amino-2-(4-amino-3,5-dichlorophenyl)ethylidene)-3-(methoxyimino)-3-(2-methoxyphenyl)propanamide [Example 13]” as the compound, how does the IC50 read?
Answer: > 1000 nM

Question: “N-(1-Amino-2-(4-amino-3,5-dichlorophenyl)ethylidene)-3-(methoxyimino)-3-(4-methoxyphenyl)propanamide [Example 2]” was tested. Which IC50 did it give?
Answer: 100 to 1000 nM

Question: With “N-(1-Amino-2-(4-amino-3,5-dichlorophenyl)ethylidene)-3-(methoxyimino)-3-(4-nitrophenyl)propanamide [Example 17]” as the compound, how does the IC50 read?
Answer: 100 to 1000 nM

Question: “N-(1-Amino-2-(4-amino-3,5-dichlorophenyl)ethylidene)-3-(methoxyimino)-3-phenylpropanamide [Example 9]” was tested. Which IC50 did it give?
Answer: 100 to 1000 nM

Question: With “N-(2-(4-Acetamido-3,5-dichlorophenyl)-1-aminoethylidene)-3-(4-fluorophenyl)-3-(methoxyimino)propanamide [Example 15]” as the compound, how does the IC50 read?
Answer: < 100 nM

Question: Which IC50 does the source give for “N-(2-(4-Acetamido-3,5-dichlorophenyl)-1-aminoethylidene)-3-(4-nitrophenyl)-3-(methoxyimino)propanamide [Example 16]” here?
Answer: < 100 nM

Question: Which IC50 does the source give for “N-(2-(4-Acetamido-3,5-dichlorophenyl)-1-aminoethylidene)-3-(ethoxyimino)-3-(4-methoxyphenyl)propanamide [Example 5]” here?
Answer: < 100 nM

Question: How did the IC50 turn out when “N-(2-(4-Acetamido-3,5-dichlorophenyl)-1-aminoethylidene)-3-(methoxyimino)-3-(2-methoxyphenyl)propanamide [Example 12]” was run?
Answer: 100 to 1000 nM

Question: How did the IC50 turn out when “N-(2-(4-Acetamido-3,5-dichlorophenyl)-1-aminoethylidene)-3-(methoxyimino)-3-(3-methoxyphenyl)propanamide [Example 11]” was run?
Answer: 100 to 1000 nM
